Results: patent publication US8846652B2, “Therapeutic uses of steroidal compounds” (Hunter-Fleming Limited, priority 2005, dated 2014)
Peptide text beside a SMILES is read from it.

What was measured:
[1] = system: spared nerve injury (SNI) model of neuropathic pain; assay: Spared nerve injury (SNI) model of neuropathic pain, mechanical allodynia by von Frey filaments; assay type: in vivo, mice; conditions: daily oral gavage for two weeks, SNI lesion on day 8, thresholds measured at 2 pm over 7 days after SNI surgery
Method: All animals were fed standard chow and water ad libitum. Animal care and procedures were performed within the United Kingdom Home Office protocols and guidelines. Age (10-12 weeks, 25-30 g) matched adult mice were used in all experiments (n=8/genotype).
Mice were anaesthetised with Hypnorm (Fentanyl citrate 0.315 mg/ml+Fluanisone 10 mg/ml, Jansson):Hypnovel (Midazolam 5 mg/ml, Roche):water at a ratio of 1:1:2 at 4 μl/g. The recently described SNI model of neuropathic pain was used (Holmes et al (2003) Proc. Natl. Acad. Sci. U.S.A. 100 6180-6185). The spared nerve injury model (SNI), is performed by ligation of two branches of the sciatic nerve after it trifurcates, leaving one branch intact. […]
In all tests, the examiner was blind to the genotype of the mice. Mechanical thresholds were measured with a series of calibrated von Frey filaments (Stoeling) from 0.005 g to a maximum of 3.63 g. […] Mechanical sensitivity was assessed on each hind paw, employing the up-down testing paradigm to determine the threshold force required to elicit a withdrawal response to 50% of stimulations [F. E. Holmes, A. Bacon, R. J. Pope, P. A. Vanderplank, N. C. […]
11β-hydroxy-Δ4-androstene-3,17-dione was administered to 8 adult male mice aged 10-12 weeks of age daily at 9.00 am by oral gavage for two weeks. […] At 2 pm on the days when testing took place, mechanosensory thresholds were measured.

GALR1 = target: T1, GALR1 (Homo sapiens, UniProt P47211); conditions: cited from earlier work
T1 sequence (P47211 1-349): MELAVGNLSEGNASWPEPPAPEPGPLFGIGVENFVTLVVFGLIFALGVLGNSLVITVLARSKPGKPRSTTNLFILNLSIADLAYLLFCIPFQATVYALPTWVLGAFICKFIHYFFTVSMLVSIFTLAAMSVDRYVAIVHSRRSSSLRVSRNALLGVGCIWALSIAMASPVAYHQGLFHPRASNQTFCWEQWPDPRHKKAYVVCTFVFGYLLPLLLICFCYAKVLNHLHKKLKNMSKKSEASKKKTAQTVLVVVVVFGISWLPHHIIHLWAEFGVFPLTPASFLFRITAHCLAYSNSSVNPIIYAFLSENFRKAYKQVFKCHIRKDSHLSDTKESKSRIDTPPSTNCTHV

GALR2 = target: T2, GALR2 (Homo sapiens, UniProt O43603); conditions: cited from earlier work
T2 sequence (O43603 1-387): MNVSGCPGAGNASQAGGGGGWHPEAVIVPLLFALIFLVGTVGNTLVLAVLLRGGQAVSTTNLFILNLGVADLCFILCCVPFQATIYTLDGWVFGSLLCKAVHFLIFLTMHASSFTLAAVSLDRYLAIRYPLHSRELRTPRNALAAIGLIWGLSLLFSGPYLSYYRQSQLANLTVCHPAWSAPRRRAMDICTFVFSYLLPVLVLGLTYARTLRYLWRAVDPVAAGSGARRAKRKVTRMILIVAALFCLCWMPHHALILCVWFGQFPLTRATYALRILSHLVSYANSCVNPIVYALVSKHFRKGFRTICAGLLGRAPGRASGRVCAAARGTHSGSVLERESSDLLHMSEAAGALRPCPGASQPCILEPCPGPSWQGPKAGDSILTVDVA

Compound | mechanosensory allodynia (chronic pain behaviour) after SNI surgery [1] | agonistic activity at GALR1 (GALR1) | agonistic activity at GALR2 (GALR2)
C[C@]12CCC(=O)C=C1CC[C@@H]1[C@@H]2[C@@H](O)C[C@]2(C)C(=O)CC[C@@H]12 [11β-hydroxy-Δ4-androstene-3,17-dione] | markedly and significantly attenuated mechanosensory allodynia |  | 
Cc1cc(=O)oc2cc(NC(=O)[C@H](CCCCN)NC(=O)[C@H](CC3CCCCC3)NC(=O)OCC3c4ccccc4-c4ccccc43)ccc12 [galnon] (HELM PEPTIDE1{[O=C(OCC1c2ccccc2-c2ccccc21)[*:2]].[Cha].K.[Cc1cc(=O)oc2cc(N[*:1])ccc12]}$$$$V2.0) |  | equally activates and has agonistic activity | equally activates and has agonistic activity
